In PubChem BioAssay AID2433 (Vanderbilt High Throughput Screening Facility, 2010):
Calls of active or inactive are those of the source.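 The calls were made as follows: active = a concentration-response curve whose fit quality R2 exceeds 0.5; inactive = the rest.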

Molecular target: Muscarinic acetylcholine receptor M5 (Homo sapiens) (UniProt P08912)
Experiment: potentiation of ACh calcium response at M5 – cell-based, CHO-K1 M5, Fluo-4 calcium, ACh EC20, selectivity assay for M1 muscarinic PAM project, dose response (AID 2433)
Conditions: CHO-K1 M5 cells; for % of max ACh response: at 30 µM (top of the series)

Muscarinic acetylcholine receptor M5 (Homo sapiens), sequence (P08912 whole entry, looked up): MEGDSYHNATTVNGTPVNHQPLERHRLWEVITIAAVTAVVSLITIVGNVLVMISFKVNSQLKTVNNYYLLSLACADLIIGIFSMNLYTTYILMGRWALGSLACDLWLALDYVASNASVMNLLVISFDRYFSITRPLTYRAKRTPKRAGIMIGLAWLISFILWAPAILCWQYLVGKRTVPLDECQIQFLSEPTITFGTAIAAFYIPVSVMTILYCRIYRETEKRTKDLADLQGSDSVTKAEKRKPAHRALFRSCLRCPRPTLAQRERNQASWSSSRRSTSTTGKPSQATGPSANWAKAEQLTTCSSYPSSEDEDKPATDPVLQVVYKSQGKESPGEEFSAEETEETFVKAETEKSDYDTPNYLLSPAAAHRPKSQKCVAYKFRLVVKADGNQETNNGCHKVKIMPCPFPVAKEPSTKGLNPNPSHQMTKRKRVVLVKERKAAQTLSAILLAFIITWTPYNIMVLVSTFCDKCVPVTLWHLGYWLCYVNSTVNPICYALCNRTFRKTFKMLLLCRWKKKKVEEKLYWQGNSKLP

| SMILES | % of max ACh response | EC50 |
| --- | --- | --- |
| Cn1cc(-c2cc(F)c(CN3C(=O)C(=O)c4ccccc43)c(F)c2)cn1 | inactive |  |
| Cn1cc(-c2ccc(CN3C(=O)C(=O)c4ccccc43)c(F)c2)cn1 | inactive |  |
| Cn1cc(-c2ccc(CN3C(=O)C(=O)c4ccccc43)cc2)cn1 |  | inactive |
